Patent US6610824B2 (Amylin Pharmaceuticals, Inc., priority 1991, dated 2003)
Where a SMILES comes first, the peptide text is derived from it.

What was measured:
[1] = target: T1, amylin receptors (Rattus norvegicus, UniProt P32214); assay: Receptor binding assay (125I-rat amylin competition, rat basal forebrain membranes); conditions: competition with 125I-rat amylin at 12-16 pM
T1 construct: This basal forebrain tissue, containing the nucleus accumbens and surrounding regions, was weighed and homogenized; from tissue; host or cells: rat basal forebrain (nucleus accumbens and surrounding regions) membranes
T1 sequence (P32214 25-516): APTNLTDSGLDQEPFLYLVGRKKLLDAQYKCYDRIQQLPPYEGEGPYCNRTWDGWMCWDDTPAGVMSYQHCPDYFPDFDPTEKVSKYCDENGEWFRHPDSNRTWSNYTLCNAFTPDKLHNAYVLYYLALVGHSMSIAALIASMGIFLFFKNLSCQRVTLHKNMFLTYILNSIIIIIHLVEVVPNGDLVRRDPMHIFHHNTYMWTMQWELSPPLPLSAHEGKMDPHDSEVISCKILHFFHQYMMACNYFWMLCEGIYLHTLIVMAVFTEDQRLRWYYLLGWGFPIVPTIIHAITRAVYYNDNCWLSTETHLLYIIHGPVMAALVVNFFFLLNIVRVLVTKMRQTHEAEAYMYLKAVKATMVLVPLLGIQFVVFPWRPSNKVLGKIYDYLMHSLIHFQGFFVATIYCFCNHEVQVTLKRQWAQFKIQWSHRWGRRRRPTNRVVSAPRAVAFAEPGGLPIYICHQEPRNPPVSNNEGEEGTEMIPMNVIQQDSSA
T1 sequence (Q9JJ74 27-148 partner): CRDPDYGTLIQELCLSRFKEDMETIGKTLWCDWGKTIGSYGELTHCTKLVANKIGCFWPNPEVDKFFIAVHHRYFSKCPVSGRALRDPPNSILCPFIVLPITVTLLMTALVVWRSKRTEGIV
Source text: Unlabeled peptides were obtained from BACHEM Inc. (Torrance, Calif.) and Peninsula Laboratories (Belmont, Calif.).
Male Sprague-Dawley rats (200-250) grams were sacrificed by decapitation. Brains were removed to cold phosphate-buffered saline (PBS). From the ventral surface, cuts were made rostral to the hypothalamus, bounded laterally by the olfactory tracts and extending at a 45Ε angle medially from these tracts. This basal forebrain tissue, containing the nucleus accumbens and surrounding regions, was weighed and homogenized in ice-cold 20 mM HEPES buffer (20 mM HEPES acid, pH adjusted to 7.4 with NaOH at 23ΕC). […] The final membrane pellet was resuspended in 20 mM HEPES buffer containing 0.2 mM phenylmethylsulfonyl fluoride (PMSF).
Solutions were incubated for 60 minutes at 2ΕC. […] Filters were washed immediately before filtration with 5 ml cold PBS, and immediately after filtration with 15 ml cold PBS.

[2] = Stability in solution; format: physicochemical; conditions: where a comparison is made, compared with human amylin
Source text: (§1) This may be due in some measure, although this is not known, to the different aggregation properties of the amylins from different species.
(§2) The agonist analogues of amylin of this invention are useful in view of their pharmacological properties. […] In addition to the description of compounds pursuant to FIG. 3, certain preferred compounds are set forth in Table I. The preferred compounds des-^1Lys-h-amylin [SEQ. ID. NO. 7], ^28Pro-h-amylin [SEQ. ID. NO. 8], ^25, 28, 29Pro-h-amylin [SEQ. ID. NO. 9], ^18Arg^25, 28Pro-h-amylin [SEQ. ID. NO. 10], and des-^1Lys^18Arg^25, 28Pro-h-amylin [SEQ. ID. NO. […] These preferred compounds include ^25Pro^26Val^28, 29Pro-h-amylin [SEQ. ID. NO. 12], ^25, 28, 29Pro-h-amylin, and ^18Arg^25, 28Pro-h-amylin.

[3] = Solubility; format: physicochemical; conditions: where a comparison is made, compared with human amylin
Source text: as §1, §2

IC50 [1]	Compound	stability in solution [2]	solubility [3]
0.31 nM	CC[C@H](C)[C@H](NC(=O)[C@H](C)NC(=O)CNC(=O)[C@H](Cc1ccccc1)NC(=O)[C@H](CC(N)=O)NC(=O)[C@H](CC(N)=O)NC(=O)[C@H](CO)NC(=O)[C@H](CO)NC(=O)[C@H](Cc1c[nH]cn1)NC(=O)[C@@H](NC(=O)[C@H](CC(C)C)NC(=O)[C@H](Cc1ccccc1)NC(=O)[C@H](CC(N)=O)NC(=O)[C@H](C)NC(=O)[C@H](CC(C)C)NC(=O)[C@H](CCCNC(=N)N)NC(=O)[C@H](CCC(N)=O)NC(=O)[C@@H](NC(=O)[C@H](C)NC(=O)[C@@H]1CCCCNC(=O)C[C@H](NC(=O)[C@@H](N)CCCCN)C(=O)N[C@@H](CC(N)=O)C(=O)N[C@@H]([C@@H](C)O)C(=O)N[C@@H](C)C(=O)N[C@@H]([C@@H](C)O)C(=O)N1)[C@@H](C)O)C(C)C)C(=O)N[C@@H](CC(C)C)C(=O)N[C@@H](CO)C(=O)N[C@@H](CO)C(=O)N[C@H](C(=O)N[C@@H](CC(N)=O)C(=O)N[C@H](C(=O)NCC(=O)N[C@@H](CO)C(=O)N[C@@H](CC(N)=O)C(=O)N[C@H](C(=O)N[C@@H](Cc1ccc(O)cc1)C(N)=O)[C@@H](C)O)C(C)C)[C@@H](C)O [Example 3, ^2, 7Cyclo-[^2Asp, ^7Lys]-h-Amylin] (HELM PEPTIDE1{K.D.N.T.A.T.K.A.T.Q.R.L.A.N.F.L.V.H.S.S.N.N.F.G.A.I.L.S.S.T.N.V.G.S.N.T.Y.[am]}$PEPTIDE1,PEPTIDE1,2:R3-7:R3$$$V2.0)	–	–
–	rat amylin	higher	higher
–	CC[C@H](C)[C@H](NC(=O)[C@H](C)NC(=O)CNC(=O)[C@H](Cc1ccccc1)NC(=O)[C@H](CC(N)=O)NC(=O)[C@H](CC(N)=O)NC(=O)[C@H](CO)NC(=O)[C@H](CO)NC(=O)[C@H](Cc1c[nH]cn1)NC(=O)[C@@H](NC(=O)[C@H](CC(C)C)NC(=O)[C@H](Cc1ccccc1)NC(=O)[C@H](CC(N)=O)NC(=O)[C@H](C)NC(=O)[C@H](CC(C)C)NC(=O)[C@H](CCCNC(=N)N)NC(=O)[C@H](CCC(N)=O)NC(=O)[C@@H](NC(=O)[C@H](C)NC(=O)[C@@H]1CSSC[C@H](NC(=O)[C@@H](N)CCCCN)C(=O)N[C@@H](CC(N)=O)C(=O)N[C@@H]([C@@H](C)O)C(=O)N[C@@H](C)C(=O)N[C@@H]([C@@H](C)O)C(=O)N1)[C@@H](C)O)C(C)C)C(=O)N[C@@H](CC(C)C)C(=O)N[C@@H](CO)C(=O)N[C@@H](CO)C(=O)N[C@H](C(=O)N[C@@H](CC(N)=O)C(=O)N[C@H](C(=O)NCC(=O)N[C@@H](CO)C(=O)N[C@@H](CC(N)=O)C(=O)N[C@H](C(=O)N[C@@H](Cc1ccc(O)cc1)C(N)=O)[C@@H](C)O)C(C)C)[C@@H](C)O [human amylin]	limited stability	limited solubility
